Data on 23 molecules can be found in patent US20100311714A1, “1H-IMIDAZO[4,5-c]QUINOLINONE COMPOUNDS” (priority 2009, published 2010).

Structures are written as SMILES.

For this assay, the system named is PKB Ser473 phosphorylation in Rat1-myr-HA-p110 delta cells. In words: Reverse protein array, PKB Ser473 phosphorylation in Rat1-myr-HA-p110 delta cells. The assay is classed as cell-based. Particulars: Rattus norvegicus, 0.5 h, 30 minutes compound incubation, read-out: p-PKB/IC50_delta.
Turning to `Cc1ncccc1-n1c(=O)n(C)c2cnc3ccc(-c4cncc(N)c4)cc3c21` [Example 2.25, 8-(5-Amino-pyridin-3-yl)-3-methyl-1-(2-methyl-pyridin-3-yl)-1,3-dihydro-imidazo[4,5-c]quinolin-2-one], the IC50 turned out to be 110 nM.

With `CNc1cncc(-c2ccc3ncc4c(c3c2)n(-c2cccnc2C)c(=O)n4C)c1` [Example 2.26, 3-Methyl-8-(5-methylamino-pyridin-3-yl)-1-(2-methyl-pyridin-3-yl)-1,3-dihydro-imidazo[4,5-c]quinolin-2-one], the IC50 came out at 67.3 nM. Next, `COc1cc(-c2ccc3ncc4c(c3c2)n(-c2cccnc2C)c(=O)n4C)cnc1C(OC)OC` [Example 2.27, 8-(6-Dimethoxymethyl-5-methoxy-pyridin-3-yl)-3-methyl-1-(2-methyl-pyridin-3-yl)-1,3-dihydro-imidazo[4,5-c]quinolin-2-one]: 825 nM. With `CCOc1cc(-c2ccc3ncc4c(c3c2)n(-c2cccnc2C)c(=O)n4C)cnc1COC` [Example 2.28, 8-(5-Ethoxy-6-methoxymethyl-pyridin-3-yl)-3-methyl-1-(2-methyl-pyridin-3-yl)-1,3-dihydro-imidazo[4,5-c]quinolin-2-one], the IC50 stood at 218 nM. Next, `Cc1ncccc1-n1c(=O)n(C)c2cnc3ccc(-c4cncc(N5CCC5)c4)cc3c21` [Example 2.29, 8-(5-Azetidin-1-yl-pyridin-3-yl)-3-methyl-1-(2-methyl-pyridin-3-yl)-1,3-dihydro-imidazo[4,5-c]quinolin-2-one]: 122 nM. Turning to `CCNc1cc(-c2ccc3ncc4c(c3c2)n(-c2cccnc2C)c(=O)n4C)cnc1CO` [Example 2.31, 8-(5-Ethylamino-6-hydroxymethyl-pyridin-3-yl)-3-methyl-1-(2-methyl-pyridin-3-yl)-1,3-dihydro-imidazo[4,5-c]quinolin-2-one], the IC50 came to 31.4 nM. Next, `CNc1cc(-c2ccc3ncc4c(c3c2)n(-c2cccnc2C)c(=O)n4C)cnc1C` [Example 2.32, 3-Methyl-8-(6-methyl-5-methylamino-pyridin-3-yl)-1-(2-methyl-pyridin-3-yl)-1,3-dihydro-imidazo[4,5-c]quinolin-2-one]: 33.7 nM. Next, `Cc1cccnc1-n1c(=O)n(C)c2cnc3ccc(-c4ccc(C(N)=O)cc4)cc3c21` [Example 3.3, 4-[3-Methyl-1-(3-methyl-pyridin-2-yl)-2-oxo-2,3-dihydro-1H-imidazo[4,5-c]quinolin-8-yl]-benzamide]: 620 nM; `CNc1ncc(-c2ccc3ncc4c(c3c2)n(-c2ncccc2C)c(=O)n4C)cn1` [Example 3.4, 3-Methyl-8-(2-methylamino-pyrimidin-5-yl)-1-(3-methyl-pyridin-2-yl)-1,3-dihydro-imidazo[4,5-c]quinolin-2-one]: 742 nM; `CNC(=O)c1ccc(-c2ccc3ncc4c(c3c2)n(-c2ncccc2C)c(=O)n4C)cc1` [Example 3.5, N-Methyl-4-[3-methyl-1-(3-methyl-pyridin-2-yl)-2-oxo-2,3-dihydro-1H-imidazo[4,5-c]quinolin-8-yl]-benzamide]: 458 nM. As for `COc1ccc(-c2ccc3ncc4c(c3c2)n(-c2ncccc2C)c(=O)n4C)cc1OC` [Example 3.10, 8-(3,4-Dimethoxy-phenyl)-3-methyl-1-(3-methyl-pyridin-2-yl)-1,3-dihydro-imidazo[4,5-c]quinolin-2-one], the IC50 worked out at 479 nM. Next, `Cc1cccnc1-n1c(=O)n(C)c2cnc3ccc(-c4cnc(N)c(C(F)(F)F)c4)cc3c21` [Example 3.12, 8-(6-Amino-5-trifluoromethyl-pyridin-3-yl)-3-methyl-1-(3-methyl-pyridin-2-yl)-1,3-dihydro-imidazo[4,5-c]quinolin-2-one]: 75.5 nM; `COc1ccc(-c2ccc3ncc4c(c3c2)n(-c2cnccc2C)c(=O)n4C)cn1` [Example 4.3, 8-(6-Methoxy-pyridin-3-yl)-3-methyl-1-(4-methyl-pyridin-3-yl)-1,3-dihydro-imidazo[4,5-c]quinolin-2-one]: 681 nM. In the case of `Cn1c(=O)n(-c2cccnc2)c2c3cc(-c4ccc(CO)nc4)ccc3ncc21` [Example 5.1, 8-(6-Hydroxymethyl-pyridin-3-yl)-3-methyl-1-pyridin-3-yl-1,3-dihydro-imidazo[4,5-c]quinolin-2-one] it was 365 nM; in that of `CN(C)c1ccc(-c2ccc3ncc4c(c3c2)n(-c2cccnc2)c(=O)n4C)cn1` [Example 5.3, 8-(6-Dimethylamino-pyridin-3-yl)-3-methyl-1-pyridin-3-yl-1,3-dihydro-imidazo[4,5-c]quinolin-2-one], 251 nM; in that of `CCOc1ccc(-c2ccc3ncc4c(c3c2)n(-c2cccnc2F)c(=O)n4C)cn1` [Example 6.1, 8-(6-Ethoxy-pyridin-3-yl)-1-(2-fluoro-pyridin-3-yl)-3-methyl-1,3-dihydro-imidazo[4,5-c]quinolin-2-one], 144 nM.

In the case of `Cn1c(=O)n(-c2cccnc2F)c2c3cc(-c4cnc(N)c(C(F)(F)F)c4)ccc3ncc21` [Example 6.2, 8-(6-Amino-5-trifluoromethyl-pyridin-3-yl)-1-(2-fluoro-pyridin-3-yl)-3-methyl-1,3-dihydro-imidazo[4,5-c]quinolin-2-one], the IC50 came out at 11.5 nM. In the case of `Cc1nc(F)ccc1-n1c(=O)n(C)c2cnc3ccc(-c4cnc(N)c(C(F)(F)F)c4)cc3c21` [Example 7.1, 8-(6-Amino-5-trifluoromethyl-pyridin-3-yl)-1-(6-fluoro-2-methyl-pyridin-3-yl)-3-methyl-1,3-dihydro-imidazo[4,5-c]quinolin-2-one], the IC50 was determined as 24.7 nM. On to `Cc1nc(F)ccc1-n1c(=O)n(C)c2cnc3ccc(-c4cnc5c(ccn5C)c4)cc3c21` [Example 7.2, 1-(6-Fluoro-2-methyl-pyridin-3-yl)-3-methyl-8-(1-methyl-1H-pyrrolo[2,3-b]pyridin-5-yl)-1,3-dihydro-imidazo[4,5-c]quinolin-2-one], for which the IC50 amounted to 69.7 nM. Next, `CCOc1ccc(-c2ccc3ncc4c(c3c2)n(-c2ccc(F)nc2C)c(=O)n4C)cn1` [Example 7.3, 8-(6-Ethoxy-pyridin-3-yl)-1-(6-fluoro-2-methyl-pyridin-3-yl)-3-methyl-1,3-dihydro-imidazo[4,5-c]quinolin-2-one]: 85.8 nM. In the case of `CNc1ccc(-c2ccc3ncc4c(c3c2)n(-c2ccc(F)nc2C)c(=O)n4C)cn1` [Example 7.4, 1-(6-Fluoro-2-methyl-pyridin-3-yl)-3-methyl-8-(6-methylamino-pyridin-3-yl)-1,3-dihydro-imidazo[4,5-c]quinolin-2-one] it was 19.3 nM; in that of `CCOc1cc(-c2ccc3ncc4c(c3c2)n(-c2ccc(F)nc2C)c(=O)n4C)cnc1COC` [Example 7.5, 8-(5-Ethoxy-6-methoxymethyl-pyridin-3-yl)-1-(6-fluoro-2-methyl-pyridin-3-yl)-3-methyl-1,3-dihydro-imidazo[4,5-c]quinolin-2-one], 182 nM; in that of `Cc1nc(F)ccc1-n1c(=O)n(C)c2cnc3ccc(-c4cncc(C(C)(C)O)c4)cc3c21` [Example 7.8, 1-(6-Fluoro-2-methyl-pyridin-3-yl)-8-[5-(1-hydroxy-1-methyl-ethyl)-pyridin-3-yl]-3-methyl-1,3-dihydro-imidazo[4,5-c]quinolin-2-one], 80.8 nM.
